According to patent publication US10344019B2 (priority 2010, dated 2019):
Where two headings read alike, the source gives them in different places.

Legend:
Format in all cases: cell-based
[1] = test system: HCV 1b RLuc cells (dicistronic genotype 1b Con1 replicon, RLuc reporter); assay: microbe, parasite or virus in culture; conditions: Hepatitis C virus, read-out: 1b (nM)
Method in brief: (§1)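 Renilla luciferase HCV replicon cells: dicistronic 1b Con1, 1a H77 or 2a JFH-1 replicons, or a JFH-1 chimera carrying J6 NS5A (M31 present). Compound in DMSO serial dilutions, 72 h incubation, then lysis and luciferase read. EC50 by non-linear regression.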

[2] = test system: HCV 2b Rluc cells (NS5A chimeric genotype 2a JFH-1 replicon with genotype 2b MD2b-1 NS5A gene, M31 present); assay: microbe, parasite or virus in culture; conditions: Hepatitis C virus, read-out: 2b
Method in brief: (§2)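 Replicon cells stably carrying the listed RLuc-encoding dicistronic replicons were seeded and treated with DMSO serial dilutions of compound (10 mM stocks) diluted into culture medium. After 72 h, cells were lysed and Renilla luciferase activity measured. EC50 was derived by non-linear regression.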

[3] = test system: HCV 3a RLuc cells (NS5A chimeric genotype 1b Con1 replicon with consensus genotype 3a NS5A gene); assay: microbe, parasite or virus in culture; conditions: Hepatitis C virus
Method in brief: as §2

[4] = test system: HCV 2a JFH-1 Rluc cells (dicistronic genotype 2a JFH-1 replicon, RLuc reporter); assay: microbe, parasite or virus in culture; conditions: Hepatitis C virus, read-out: 2a JFH
Method in brief: as §1

[5] = test system: HCV 4a Rluc cells (NS5A chimeric genotype 1b Con1 replicon with genotype 4a NS5A gene); assay: microbe, parasite or virus in culture; conditions: Hepatitis C virus, read-out: 4a
Method in brief: as §2

[6] = test system: HCV 1a RLuc cells (dicistronic genotype 1a H77 replicon, RLuc reporter); assay: microbe, parasite or virus in culture; conditions: Hepatitis C virus, read-out: 1a
Method in brief: as §1

[7] = test system: HCV 2a Rluc cells (NS5A chimeric genotype 2a JFH-1 replicon with genotype 2a J6 strain NS5A gene, M31 present); assay: HCV replicon reporter assay, genotype 2a J6 (M31 present); conditions: Hepatitis C virus, read-out: 2a J6
Method in brief: as §1

[8] = read-out: 3a, genotype 3a NS5A chimeric 1b Con1 replicon
[9] = genotype 2a JFH-1 replicon, RLuc reporter
[10] = genotype 1a H77 replicon, RLuc reporter
[11] = read-out: 3a, genotype 3a replicon

| Structure (SMILES) | EC50 [1] [nM] | EC50 [2] [nM] | EC50 [3, 8] [nM] | EC50 [4, 9] [nM] | EC50 [5] [nM] | EC50 [6, 10] [nM] | EC50 [7] [nM] | EC50 ([3]; read-out: 3a, genotype 3a NS5A chimeric replicon) [nM] | EC50 ([4]; genotype 2a JFH-1 RLuc replicon) [nM] | EC50 ([6]; genotype 1a H77 RLuc replicon) [nM] | EC50 [3, 11] [nM] | EC50 ([4]; genotype 2a JFH-1 replicon) [nM] | EC50 ([6]; genotype 1a replicon) [nM] |
| --- | --- | --- | --- | --- | --- | --- | --- | --- | --- | --- | --- | --- | --- |
| COC(=O)N[C@@H](C(=O)N1C[C@@H](OC)C[C@H]1c1ncc(-c2ccc(-c3ccc4cc(-c5cnc([C@@H]6CCCN6C(=O)[C@H](C(C)C)N(C)C(=O)OC)[nH]5)ccc4c3)cc2)[nH]1)c1ccccc1 [Example 122] | 0.009 | > 44 | 0.001 to 0.99 | 0.001 to 0.999 | 0.001 to 0.99 | 0.001 to 0.999 | > 44 | – | – | – | – | – | – |
| COC(=O)N[C@H](C(=O)N1CCC[C@H]1c1ncc(-c2ccc3cc(-c4ccc5c(c4)CCc4nc([C@@H]6CCCN6C(=O)[C@@H](NC(=O)OC)C(C)C)[nH]c4-5)ccc3c2)[nH]1)C(C)C [Example 114] | 0.011 | > 44 | 1 to 4.99 | 1 to 44 | 0.001 to 0.99 | 0.001 to 0.999 | > 44 | – | – | – | – | – | – |
| O=C(N[C@@H](C(=O)N1CCC[C@H]1c1ncc(-c2cc3c4c(c2)OCc2cc(-c5cnc([C@@H]6CCCN6C(=O)[C@H](NC(=O)C6CCCC6)c6ccccc6)[nH]5)cc(c2-4)OC3)[nH]1)c1ccccc1)C1CCCC1 [Example 489] | 0.048 | 0.001 to 0.999 | – | – | 0.001 to 0.99 | – | 0.001 to 0.999 | 0.001 to 0.99 | 0.001 to 0.999 | 0.001 to 0.999 | – | – | – |
| COC(=O)N[C@H](C(=O)N1CCC[C@H]1c1ncc(-c2ccc(-c3ccc4c(ccc5nc([C@@H]6[C@H]7CC[C@H](C7)N6C(=O)[C@H](NC(=O)OC)c6ccccc6)[nH]c54)c3)cc2)[nH]1)C(C)C [Example 410] | 0.018 | > 44 | – | – | 0.001 to 0.99 | – | 1 to 44 | – | – | – | 0.001 to 0.99 | 0.001 to 0.999 | 0.001 to 0.999 |
| COC(=O)N[C@H](C(=O)N1CC2(C[C@H]1c1nc3ccc4cc(-c5ccc6c(c5)CCc5nc(C7CCCN7C(=O)[C@H](NC(=O)OC)c7ccccc7)[nH]c5-6)ccc4c3[nH]1)OCCO2)C(C)C (stereo partly shown) [Example 365] | 0.11 | 0.001 to 0.999 | – | – | 0.001 to 0.99 | – | 0.001 to 0.999 | – | – | – | 0.001 to 0.99 | 0.001 to 0.999 | 0.001 to 0.999 |
| CCO[C@H]1C[C@@H](c2ncc(-c3ccc(-c4ccc5cc(-c6cnc([C@@H]7CCCN7C(=O)[C@@H](NC(=O)OC)C(C)C)[nH]6)ccc5c4)cc3)[nH]2)N(C(=O)[C@H](NC(=O)OC)c2ccccc2)C1 [Example 157] | 0.008 | 1 to 44 | 1 to 4.99 | 0.001 to 0.999 | 0.001 to 0.99 | 0.001 to 0.999 | > 44 | – | – | – | – | – | – |
| CC(C)COC(=O)N[C@@H](C(=O)N1CCC[C@H]1c1ncc(-c2cc3c4c(c2)OCc2cc(-c5cnc([C@@H]6CCCN6C(=O)[C@H](NC(=O)OCC(C)C)c6ccccc6)[nH]5)cc(c2-4)OC3)[nH]1)c1ccccc1 [Example 487] | 0.027 | 1 to 44 | – | – | 0.001 to 0.99 | – | > 44 | – | – | – | 0.001 to 0.99 | 0.001 to 0.999 | 0.001 to 0.999 |
| CN1CCN(C(=O)N[C@@H](C(=O)N2CCC[C@H]2c2ncc(-c3cc4c5c(c3)OCc3cc(-c6cnc([C@@H]7CCCN7C(=O)[C@H](NC(=O)N7CCN(C)CC7)c7ccccc7)[nH]6)cc(c3-5)OC4)[nH]2)c2ccccc2)CC1 [Example 464] | – | > 44 | – | – | > 5 | – | 1 to 44 | – | – | – | 1 to 4.99 | 1 to 44 | > 44 |
| O=C([C@H](Nc1ncccn1)c1ccccc1)N1CCC[C@H]1c1ncc(-c2cc3c4c(c2)OCc2cc(-c5cnc([C@@H]6CCCN6C(=O)[C@H](Nc6ncccn6)c6ccccc6)[nH]5)cc(c2-4)OC3)[nH]1 [Example 463] | – | > 44 | – | – | > 5 | – | > 44 | – | – | – | 1 to 4.99 | 1 to 44 | 1 to 44 |
| CN(C)CCC(=O)N[C@@H](C(=O)N1CCC[C@H]1c1ncc(-c2cc3c4c(c2)OCc2cc(-c5cnc([C@@H]6CCCN6C(=O)[C@H](NC(=O)CCN(C)C)c6ccccc6)[nH]5)cc(c2-4)OC3)[nH]1)c1ccccc1 [Example 467] | – | > 44 | – | – | > 5 | – | > 44 | – | – | – | > 5 | > 44 | > 44 |
